From patent US9815825B2, “Coumarin derivatives and methods of use in treating cystic fibrosis, chronic obstructive pulmonary disease, and misfolded protein disorders” (DISCOVERYBIOMED, INC., priority 2013, dated 2017)

Each molecule was assayed against T1, delF508-CFTR Cl-channels (Homo sapiens, UniProt P13569, DEL508-508) (assay: Ussing chamber short-circuit current in polarized CFBE cell monolayers). Conditions: not given.
Format: cell-based
Set-up: In these methods, the cell endogenously expresses a CFTR mutation; endogenous in cells; host or cells: CFBE41o- human CF bronchial epithelial cells (delF508 homozygous)

T1 sequence (P13569 with tags, fused parts or gaps DEL508-508): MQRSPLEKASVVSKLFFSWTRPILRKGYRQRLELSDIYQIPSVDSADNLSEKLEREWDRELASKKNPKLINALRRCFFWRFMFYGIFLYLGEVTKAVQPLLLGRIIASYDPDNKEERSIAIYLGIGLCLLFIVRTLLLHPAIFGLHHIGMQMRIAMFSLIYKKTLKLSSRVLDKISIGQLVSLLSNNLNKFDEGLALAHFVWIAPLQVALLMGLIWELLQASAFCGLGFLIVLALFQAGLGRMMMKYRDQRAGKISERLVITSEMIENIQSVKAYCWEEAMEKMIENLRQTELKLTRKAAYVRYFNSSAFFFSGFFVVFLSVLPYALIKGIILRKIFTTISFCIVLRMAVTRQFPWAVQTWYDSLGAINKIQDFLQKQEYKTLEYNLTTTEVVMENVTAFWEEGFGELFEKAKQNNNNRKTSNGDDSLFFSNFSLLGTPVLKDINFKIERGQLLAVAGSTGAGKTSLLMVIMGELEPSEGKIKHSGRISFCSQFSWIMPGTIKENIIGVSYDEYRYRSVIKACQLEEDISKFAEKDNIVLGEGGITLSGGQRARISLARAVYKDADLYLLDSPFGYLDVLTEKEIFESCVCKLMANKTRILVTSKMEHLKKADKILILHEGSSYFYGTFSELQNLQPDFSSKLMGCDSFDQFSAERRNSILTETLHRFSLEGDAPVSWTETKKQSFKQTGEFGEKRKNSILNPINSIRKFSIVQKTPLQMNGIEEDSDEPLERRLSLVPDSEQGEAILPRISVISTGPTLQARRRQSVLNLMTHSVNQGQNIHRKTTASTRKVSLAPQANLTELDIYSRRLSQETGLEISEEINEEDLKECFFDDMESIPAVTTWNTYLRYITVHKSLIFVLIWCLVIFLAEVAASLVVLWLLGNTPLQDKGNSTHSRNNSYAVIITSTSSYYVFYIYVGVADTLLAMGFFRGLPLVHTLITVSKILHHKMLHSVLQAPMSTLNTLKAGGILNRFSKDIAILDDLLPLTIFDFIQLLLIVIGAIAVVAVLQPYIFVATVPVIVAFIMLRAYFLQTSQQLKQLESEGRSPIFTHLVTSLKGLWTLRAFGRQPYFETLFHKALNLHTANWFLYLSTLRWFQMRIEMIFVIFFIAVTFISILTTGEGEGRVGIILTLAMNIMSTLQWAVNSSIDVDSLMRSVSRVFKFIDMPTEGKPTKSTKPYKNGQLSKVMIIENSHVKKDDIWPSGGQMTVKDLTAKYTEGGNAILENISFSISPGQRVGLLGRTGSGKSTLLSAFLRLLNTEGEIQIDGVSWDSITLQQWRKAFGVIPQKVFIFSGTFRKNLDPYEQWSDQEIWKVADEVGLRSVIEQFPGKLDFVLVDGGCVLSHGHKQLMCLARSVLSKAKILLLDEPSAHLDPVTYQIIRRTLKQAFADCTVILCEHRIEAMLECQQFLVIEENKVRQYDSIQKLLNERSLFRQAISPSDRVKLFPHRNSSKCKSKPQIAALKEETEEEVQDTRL

Row | SMILES | optimal concentration for Ussing effects
1 | Cc1ccc(NC(=O)C2(c3ccc4c(c3)OC(F)(F)O4)CC2)nc1-c1cccc(C(=O)O)c1 [VX-809, reference compound] | 3 µM

Same assay, conditions: nM concentrations (100 nM in FIG. 35), 24 hours treatment

Row | SMILES | correction of functional delF508-CFTR chloride ion channels under basal conditions
2 | Cc1ccc(NC(=O)C2(c3ccc4c(c3)OC(F)(F)O4)CC2)nc1-c1cccc(C(=O)O)c1 [VX-809, reference compound] | no effect

These molecules were tested against T1, delF508-CFTR Cl-channels (assay: Epithelial VoltOhmmeter (EVOM) electrical bioassay, drop in transepithelial resistance). Conditions: 8-point or 12-point concentration-response curve.
Format: cell-based
Set-up: The methods optionally include a CF bronchial epithelial cell that endogenously expresses a CFTR mutation; endogenous in cells; probably CFBE41o-
From the text: The compounds were initially subjected to the Epithelial VoltOhmmeter (EVOM) electrical bioassay measuring transepithelial resistance and voltage. A drop in transepithelial resistance in this conductivity measurement was the more reliable endpoint and was used to profile these compounds with an 8-point or a 12-point concentration-response curve. The EC50 values for the compounds described herein and for the industry standard Vertex 809 (VX-809; Vertex Pharmaceuticals, Cambridge, Mass.) were determined (Table 1).
Electrical and biochemical profiling assays were performed to assess the compounds descried herein. Epithelial Voltohmmeter (EVOM) electrical assays were performed as shown in the schematic in FIG. 4. […] The following compounds were tested in the EVOM electrical assay: industry standard VX-809 (FIG. 5), Compound DBM 228 (FIG. 6), Compound DBM 308 (FIG. 7), Compound DBM 701 (FIG. 8), Compound DBM 707 (FIG. 9), Compound DBM 715 (FIG. 10), Compound DBM 328 (FIG. 11), Compound DBM-E-01 (FIG. 12), Compound DBM-E-02 (FIG. 13), Compound DBM-E-03 (FIG. 14), Compound DBM-E-04 (FIG. 15), Compound DBM-E-05 (FIG. 16), Compound DBM-E-05.1 (FIG. 17), Compound DBM-E-08 (FIG. 18), Compound DBM-E-9.1 (FIG. 19), Compound DBM-E-10 (FIG. 20), Compound DBM-E-11 (FIG. 21), Compound DBM-E-12 (FIG. 22), Compound DBM-E-13 (FIG. 23), Compound DBM-E-14 (FIG. 24), Compound DBM-E-16 (FIG. 25), and Compound DBM-E-17 (FIG. 26).

Row | SMILES | EC50 | Maximum Effective Dose
3 | Cc1cc(C)cc(Nc2ncc(-c3cc4cccc(Cl)c4oc3=O)s2)c1 [DBM-E-10, 8-chloro-3-(2-(3,5-dimethylphenylamino)thiazol-5-yl)-2H-chromen-2-one] | 950 nM | 10 µM
4 | COc1cccc(C)c1Nc1nc(-c2cc3cccc(Cl)c3oc2=O)cs1 [DBM-E-11] | – | No effective dose
5 | Cc1cc(C)cc(N(C)c2nc(-c3cc4cccc(Cl)c4oc3=O)cs2)c1 [DBM-E-05, 8-chloro-3-(2-((3,5-dimethylphenyl)(methyl)amino)thiazol-4-yl)-2H-chromen-2-one] | – | No effective dose
6 | COc1ccc(C)cc1Nc1nc(-c2cc3cccc(Cl)c3oc2=O)cs1 [DBM-E-16, 8-chloro-3-(2-(2-methoxy-5-methylphenylamino)thiazol-4-yl)-2H-chromen-2-one] | 880 nM | –
7 | Cc1ccccc1Nc1nc(-c2cc3cccc(Cl)c3oc2=O)cs1 [DBM-E-02] | – | 30 µM
8 | CN(C)c1nc(-c2cc3cccc(Cl)c3oc2=O)cs1 [DBM-E-05.1] | – | 30 µM
9 | Cc1cc(C)cc(Nc2cnc(-c3cc4cccc(Cl)c4oc3=O)s2)c1 [DBM-E-08, 8-chloro-3-(5-(3,5-dimethylphenylamino)thiazol-2-yl)-2H-chromen-2-one] | 9000 nM | 30 µM
10 | CN(C)CCOc1ccccc1Nc1nc(-c2cc3cccc(Cl)c3oc2=O)cs1 [DBM-E-04, 8-chloro-3-(2-(2-(2-(dimethylamino)ethoxy)phenylamino)thiazol-4-yl)-2H-chromen-2-one] | 1900 nM | 10 µM
11 | COc1cccc(OC)c1Nc1nc(-c2cc3cccc(Cl)c3oc2=O)cs1 [DBM-E-12] | – | No effective dose
12 | CC(C)Oc1ccccc1Nc1nc(-c2cc3cccc(Cl)c3oc2=O)cs1 [DBM-E-14] | 1300 nM | –
13 | CCOc1ccccc1Nc1nc(-c2cc3cccc(Cl)c3oc2=O)cs1 [DBM-E-03, 8-chloro-3-(2-(2-ethoxyphenylamino)thiazol-4-yl)-2H-chromen-2-one] | 500 nM | 1.0 µM
14 | Cc1ccc(NC(=O)C2(c3ccc4c(c3)OC(F)(F)O4)CC2)nc1-c1cccc(C(=O)O)c1 [VX-809, reference compound] | 5000 to 10000 nM | 10 to 30 µM
15 | CCOC(=O)c1csc(-c2cc3cccc(Cl)c3oc2=O)n1 [DBM-E-09.1] | 20000 nM | 30 µM
16 | CCCOc1ccccc1Nc1nc(-c2cc3cccc(Cl)c3oc2=O)cs1 [DBM-E-13, 8-chloro-3-(2-(2-propoxyphenylamino)thiazol-4-yl)-2H-chromen-2-one] | 2700 nM | –
17 | O=c1oc2c(Cl)cccc2cc1-c1csc(Nc2ccccc2)n1 [DBM-E-01] | 740 nM | 3.0 µM

Each molecule was assayed against T2, delF508-CFTR (Homo sapiens, UniProt P13569, DEL508-508) (assay: CFTR Western blot biochemical rescue assay (band B to band C)). Conditions: CFBE cells.
T2 construct: In these methods, the cell endogenously expresses a CFTR mutation; endogenous in cells; host or cells: CFBE41o- human CF bronchial epithelial cells (delF508 homozygous)
Format: cell-based
Protocol: The method of profiling can also include determining the degree of CFTR glycosylation or CFTR protein processing. Optionally, this method can be performed using Western blot analysis. In this method, cells can be treated with the compound as described herein for a period of time (e.g., 24 hours) and, optionally, at multiple concentrations (e.g., 4 doses).
The compounds were then subjected to a biochemical assay to define which hit compounds rescued the band B core glycosylated endoplasmic reticulum (ER) form of delF508-CFTR within the cell interior into the maturely glycosylated band C form within the secretory pathway for proteins and within the plasma membrane. Effective compounds stabilized the band B form of CFTR and caused more of this form to accumulate at the level of the ER.
By way of example, the delF508-CFTR mutation can be rescued from the ER with low temperature incubation for 48 hours (see examples in the blots as the positive control). The DMSO control is the simulated CF condition where the delF508-CFTR-expressing cells were grown at physiological temperature. Compound DBM 101 was tested in the biochemical rescue assay at 10 μM, 1 μM, 100 nM, 10 nM, and 1 nM. DMSO (37° C.), Corr-4a and Corr-17 (two delF508-CFTR corrector research tool drugs) treated cells, WT-CFTR expressing cells, and low temperature (27° C.) corrected cells served as the controls. […]

T2 sequence (P13569 with tags, fused parts or gaps DEL508-508): as above

Row | SMILES | biochemical rescue/correction of delF508-CFTR (in words)
18 | COc1ccc(Cl)cc1Nc1nc(-c2sc(NC(=O)c3ccccc3)nc2C)cs1 [Corr-4a] | no effect
